Values of other authors in EP0228223A2, “Non-irritating suprofen solution” (Cilag AG, priority 1985, dated 1987).
Entries after “also recorded” stand apart in the source; their conditions may differ.

Columns and labels:
[1] = preparation swallowed; appears only seconds after swallowing, disappears within minutes

solubility in organic solvents and base (methanol, ethanol, chloroform, acetone, polyethylene glycol and 1.0 N sodium hydroxide)	SMILES	irritation in the throat [1]	solubility in water (water)
freely soluble	CC(C(=O)O)c1ccc(C(=O)c2cccs2)cc1 (stereo not shown) [Suprofen, p-(2-thenoyl)hydratropic acid]	very characteristic irritation	poorly soluble; also recorded: very slightly soluble
–	CC(C(=O)O)c1ccc(C(=O)c2cccs2)cc1 (stereo not shown) [suprofen-sodium]	irritation effect occurs	–
